Test results from US20050074777A1, “Novel cell-surface estrogen receptor and related compositions and methods” (priority 2002, published 2005).

What was measured:
[1] = target: ER-X (plasma-membrane estrogen binding site of P7 ERKO and wild-type neocortex); test: 3H-estradiol saturation binding to Percoll-purified neocortical plasma-membranes; design: species or system mouse; settings: Percoll-purified plasma-membranes from P7 ERKO and wild-type neocortex, 50 μg/tube, 18 hours at 4° C.; read-out: equilibrium dissociation constant, Kd
Experimental: Binding of ^3H estradiol to Percoll®-purified plasma-membranes from P7 ERKO and wild-type mouse neocortex. (a) Identical amounts of membrane protein (50 μg/tube) were incubated with varying concentrations of ^3H estradiol (0.3-8 nM) for 18 hours at 4° C. The reaction was terminated by addition of hydroxylapatite (HAP). The membranes and HAP were sedimented by centrifugation in a microfuge, and the pellet washed 4 times to remove free steroid. Radioactivity in the pellets was extracted with ethanol and counted. […] (b) Specificity of the binding site in Percoll®-purified membranes from P7 ERKO mouse neocortex. […] Bound ^3H estradiol was separated by sedimentation with HAP and counted at an efficiency of 50%. Data represent the number of bound counts (after subtraction of HAP-only blank control tubes, containing no membrane protein) expressed as the means +/-S.D. of triplicate determinations. The horizontal dashed line indicates the level of non-specific binding observed in the presence of 1 μM DES. Caveolar-like membrane (CLM) preparation. Membrane fractions were prepared by adapting the detergent-free method of Smart et al. (Smart, 1995). […] The ethanol supernatants were transferred to liquid scintillation fluid (5 ml) and counted. […] Specific binding was calculated by subtracting non-specific from total binding.

[2] = test system: estrogen-binding protein (ER-X); test: DES-sensitive 3H-estradiol binding in CLM preparations and lysates; design: species or system mouse
Experimental: Caveolar-like membrane (CLM) preparation. Membrane fractions were prepared by adapting the detergent-free method of Smart et al. (Smart, 1995). Briefly, pools of 40-50 P7 ERKO neocortices were homogenized in 20 mM Tricine, pH 7.8 buffer, containing 1 mM EDTA, 0.25M sucrose and 1 mM dithiothreitol (TESD buffer), then centrifuged at 1000×g at 4° C. for 10 minutes. The pellet was resuspended in TESD buffer, re-centrifuged, and the supernatants pooled. The combined supernatants were subjected to Percoll® gradient fractionation in the same buffer to isolate the plasma membrane fraction. In some binding experiments (indicated below), Percoll® purified plasma membranes were used without further fractionation. For preparation of CLMs, plasma-membranes were sonicated and further separated by centrifugation on a linear 20% to 10% OptiPrep (iodixanol) gradient (Nycomed Pharma AS, Oslo, Norway). Based upon their light buoyant density, CLMs were separated and purified from non-CLMs using two OptiPrep density gradients. […] Electrophoretically separated CLMs on PVDF membranes were probed with antibodies specific for ER-α ([…], UBI; MC20, Santa Cruz), ER-β (Zymed), flotillin (BD Transduction Labs) and other caveolar-resident proteins (PKC-α and PKC-γ, BD Transduction Labs) and non-caveolar-resident proteins (paxillin, BD Transduction Labs). Estrogen binding assay. Duplicate aliquots of 1 mg each of protein lysate from ERKO P7 neocortex or wild-type adult uterus were pre-cleared for 30 minutes using anti-rabbit-IgG-coated magnetic beads (Dynal AS). Pre-cleared protein lysates were immunoprecipitated with anti-ER-α antibodies (6F11, Novocastra; or MC20, Santa Cruz) at 4° C. overnight. […] NEN Life Sciences, Boston, Mass.) at 4° C. for 18 hours. The incubation was terminated by adsorption of the binding sites onto an equal volume of hydroxylapatite (HAP) slurry in TESD buffer. HAP pellets were washed four times with Tris-buffered saline containing 0.2% Tween-20 buffer and extracted with 1 ml absolute ethanol overnight at room temperature. The ethanol supernatants were transferred to liquid scintillation fluid (5 ml) and counted. Control tubes, used in assessing HAP adsorption of free steroid, contained HAP and the same buffer constituents, without addition of the membranes. Non-specific binding was assayed in the membranes using the same amount of radioactive ligand plus 200-fold molar excess of unlabeled diethylstilbestrol (DES) (Sigma-Aldrich). Specific binding was calculated by subtracting non-specific from total binding.

SMILES: C[C@]12CC[C@@H]3c4ccc(O)cc4CC[C@H]3[C@@H]1CC[C@@H]2O [^3H-estradiol, 2,4,6,7, 16, 17-^3H estradiol]
- Kd [1]: ~1.6 nM
- DES-sensitive estrogen binding ([2]; P7 ERKO neocortical lysates): 9.94 fmol/mg lysate protein
- DES-sensitive estrogen binding ([2]; neocortical CLM preparations from P7 ERKO mice, 10 nM 3H-estradiol): 282.12 fmol/mg CLM protein
- DES-sensitive estrogen binding ([2]; wild-type adult uterine lysates): 38.85 fmol/mg lysate protein
